The values that follow come from ChEMBL document CHEMBL4354822, “Ligand-Based Design of Nondimethylphenyl-Diarylpyrimidines with Improved Metabolic Stability, Safety, and Oral Pharmacokinetic Profiles” (J Med Chem, 2019).

Data set [1] can be described thus: Aqueous solubility of compound at 2 mg measured for 24 hrs by HPLC analysis. It counts as physicochemical. The conditions noted are these: aqueous medium.
The test system of data set [2] is Human immunodeficiency virus 1. Put plainly: Antiviral activity against HIV1 harboring reverse transcriptase K103N mutant infected in human MT4 cells assessed as reduction in virus-induced cytopathic effect incubated for 5 days by MTT assay. As to conditions: Human immunodeficiency virus 1, MT4, 120 h. The format is functional, organism-based. (Cytopathic effects are the visible damage that an infection or toxin causes in cultured cells.)

The test system of data set [3] is Human immunodeficiency virus 1. Briefly: Antiviral activity against HIV1 harboring reverse transcriptase Y181C mutant infected in human MT4 cells assessed as reduction in virus-induced cytopathic effect incubated for 5 days by MTT assay. The format is functional, organism-based. The conditions noted are these: Human immunodeficiency virus 1, MT4, 120 h.
Another data set deals with MT4. Briefly: Cytotoxicity against human MT4 cells assessed as reduction in cell viability incubated for 5 days by MTT assay. It counts as functional. The conditions noted are these: MT4, 120 h. A general note: Formazan colour is commonly taken as a measure of viable cells.
Data set [4] concerns the target Human immunodeficiency virus type 1 reverse transcriptase (Human immunodeficiency virus 1) (UniProt Q72547). Briefly: Ratio of IC50 for nevirapine to IC50 for test compound for recombinant wild type HIV1 reverse transcriptase p66/p51.
Data set [5] concerns the target Human immunodeficiency virus type 1 reverse transcriptase (Human immunodeficiency virus 1, UniProt Q72547). Put plainly: Inhibition of recombinant wild type HIV1 reverse transcriptase p66/p51 incubated for 40 mins by picogreen dye-based spectrofluorometric analysis.
Data set [6] relates to Human immunodeficiency virus 1. Briefly: Antiviral activity against HIV1 harboring reverse transcriptase L100I mutant infected in human MT4 cells assessed as reduction in virus-induced cytopathic effect incubated for 5 days by MTT assay. It counts as functional, organism-based. As to conditions: Human immunodeficiency virus 1, MT4, 120 h.
Data set [7] deals with Human immunodeficiency virus 1. Put plainly: Antiviral activity against HIV1 3B infected in human MT4 cells incubated assessed as reduction in virus-induced cytopathic effect for 5 days by MTT assay. It counts as functional, organism-based. As to conditions: Human immunodeficiency virus 1, 3B, MT4, 120 h.
For data set [8], the system named is Human immunodeficiency virus 1. Briefly: Antiviral activity against HIV1 harboring reverse transcriptase Y188L mutant infected in human MT4 cells assessed as reduction in virus-induced cytopathic effect incubated for 5 days by MTT assay. The format is functional, organism-based. The conditions noted are these: Human immunodeficiency virus 1, MT4, 120 h.
Data set [9] concerns Human immunodeficiency virus 1. Briefly: Antiviral activity against HIV1 harboring reverse transcriptase E138K mutant infected in human MT4 cells assessed as reduction in virus-induced cytopathic effect incubated for 5 days by MTT assay. It counts as functional, organism-based. The conditions noted are these: Human immunodeficiency virus 1, MT4, 120 h.
Data set [10] is described as follows: Selectivity index, ratio of CC50 for human MT4 cells to EC50 for antiviral activity against HIV1 3B infected in human MT4 cells incubated for 5 days by MTT assay. It counts as toxicity, cell-based. The conditions noted are these: MT4 cells (uninfected for CC50; HIV-1 3B infected for EC50).

In general, solubility refers to the concentration that dissolves in the medium under given conditions. The low end stands for a poorly soluble substance, the high end for a readily soluble substance. `CS(=O)(=O)O.N#Cc1ccc(Nc2nccc(Nc3c(F)cc(-c4ccc(C#N)cc4)cc3F)n2)cc1` returned a solubility at 24 h in data set [1] of 0.88 µg/mL.

By EC50 is commonly meant the concentration needed to bring the measured effect to its halfway point. For orientation: CC50 means the concentration giving 50% cytotoxicity. The term IC50 denotes the concentration that inhibits the measured activity by half. As for `N#Cc1ccc(Nc2nccc(Oc3ccc(-c4ccc(C#N)cc4)cc3F)n2)cc1`, the concentration giving a half-maximal response (EC50) in data set [2] is 12.3 nM; in [3] it was 49.1 nM; in [6], 63.9 nM; in data set [7], 1.8 nM; in data set [8], > 307000 nM; in data set [9], 6.4 nM. Moreover, the half-maximal cytotoxic concentration (CC50) with MT4 was > 307000 nM. Also, the Ratio IC50 in data set [4] fell in the range of 21 to 109. Also, the IC50 in [5] was < 3.7 nM. In data set [10], the selectivity ratio at 120 h was > 172000.

`N#Cc1ccc(Nc2nccc(Nc3c(F)cc(-c4ccc(C#N)cc4)cc3F)n2)cc1.O=S(=O)(O)O`: the concentration in solution in data set [1] (solubility at 24 h) came to 0.36 µg/mL.

For the molecule `COc1cc(-c2ccc(C#N)cc2)ccc1Oc1ccnc(Nc2ccc(C#N)cc2)n1`, the EC50 is 4.5 nM in data set [2]; 16.7 nM in data set [3]; 11.9 nM in data set [6]; 1.6 nM in data set [7]; > 298000 nM in data set [8]; 2 nM in [9]. Further, the 50% cytotoxic concentration (CC50) with MT4 was > 298000 nM. Further, in [4], the Ratio IC50 lay within 21 to 109. Further, the IC50 in data set [5] was found to be 9.3 nM. Also, the selectivity ratio at 120 h in data set [10] was > 192000.

In the case of `Cc1cc(C#N)cc(C)c1Oc1nc(Nc2ccc(C#N)cc2)nc(N)c1Br` [ETRAVIRINE], the solubility at 24 h in [1] is < 1 µg/mL. Further, the EC50 was determined as 12 nM in data set [3], 7.1 nM in data set [6], 6.3 nM in data set [7] and 6.5 nM in data set [9]. The half-maximal cytotoxic concentration (CC50) in the data set with MT4 is > 4610 nM.

Regarding `Cc1cc(-c2ccc(C#N)cc2)ccc1Oc1ccnc(Nc2ccc(C#N)cc2)n1`, the EC50 was 8.7 nM in [2]; 18.4 nM in [3]; 47.1 nM in [6]; 2.5 nM in [7]; 14400 nM in data set [8]; 6.2 nM in [9]. Besides, the CC50 with MT4 is > 310000 nM. Besides, the Ratio IC50 in data set [4] lay in the range of 21 to 109. Moreover, the IC50 in data set [5] worked out at 5.5 nM. Moreover, the selectivity ratio at 120 h in [10] was > 122000.

In [1], `N#Cc1ccc(Nc2nccc(Nc3c(F)cc(-c4ccc(C#N)cc4)cc3F)n2)cc1.O=C(O)C(F)(F)F` returned a solubility at 24 h of 0.35 µg/mL.

On to `N#Cc1ccc(Nc2nccc(Nc3c(F)cc(-c4ccc(C#N)cc4)cc3F)n2)cc1`, for which the solubility at 24 h in data set [1] is < 1 µg/mL. Also, the EC50 in [2] is 2.6 nM; in data set [3] it was 6.1 nM; in data set [6], 10.8 nM; in data set [7] it was 1.3 nM; in data set [8], 130 nM; in data set [9], 1.9 nM. Besides, the CC50 in the data set on MT4 is > 295000 nM. Also, in [5], the IC50 was 4.7 nM. In addition, in [10], the selectivity ratio at 120 h is > 238000.
